The record followed here is US11807693B2 (priority 2014, dated 2023).

The term fraction remaining denotes the share of the starting amount still present when the sample was taken.

Common to all, as to format: in vitro ADME
Data set [1] in a line: In vitro stability in rat kidney homogenate. The following applies: rat, tissue homogenate. The method in brief:
(§1)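 Apelin peptides spiked to 5 μM final into rat plasma, liver homogenate or kidney homogenate and incubated at 37° C. for up to 4 hr. Aliquots quenched with MeOH containing internal standard, centrifuged, and supernatants analysed by high-resolution LC-MS.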

Data set [2] in a line: In vitro stability in rat plasma. The method in brief:
as §1

The nature of data set [3]: In vitro stability in rat liver homogenate. The settings on record: tissue homogenate. Summed up: as §1

Starred links: 1 amine or outer side, 2 acyl side, 3 side chain; linkers in the order of their positions; H or OH if unused. Non-standard residues stand in square brackets, D forms with d. Residues, ends and D or L forms follow the SMILES beside them. *: point of attachment. dBip = N[C@H](Cc1ccc(-c2ccccc2)cc1)C(=O)O; Oic = O=C(O)[C@@H]1C[C@@H]2CCCC[C@@H]2N1; Phe(4-Cl) = N[C@@H](Cc1ccc(Cl)cc1)C(=O)O; Phe(4-I) = N[C@@H](Cc1ccc(I)cc1)C(=O)O; γGlu = O=C(O)[C@H](CCC(=O)[*:2])N[*:1]; NMeR = CN[C@@H](CCCNC(=N)N)C(=O)O; Tridecanoyl = CCCCCCCCCCCCC(=O)*; hArg = N=C(N)NCCCC[C@H](N)C(=O)O; Cha = N[C@@H](CC1CCCCC1)C(=O)O; Gly(N-CH2CH2OH) = O=C(O)CNCCO; NMeL = CN[C@@H](CC(C)C)C(=O)O; Tle = CC(C)(C)[C@H](N)C(=O)O; αMeP = C[C@@]1(C(=O)O)CCCN1; β3hV = CC(C)[C@H](N)CC(=O)O; β3hP = O=C(O)C[C@@H]1CCCN1; Pip = O=C(O)[C@@H]1CCCCN1; Nle = CCCC[C@H](N)C(=O)O; AEEA = NCCOCCOCC(=O)O; Aib = CC(C)(N)C(=O)O

Take `CCCCCCCCCCCCC(=O)N[C@@H](CCC(=O)NCCOCCOCC(=O)NCCOCCOCC(=O)N[C@@H](CCC(N)=O)C(=O)N[C@@H](CCCNC(=N)N)C(=O)N1CCC[C@H]1C(=O)N[C@@H](CCCCNC(=N)N)C(=O)N[C@@H](CC(C)C)C(=O)N[C@@H](CO)C(=O)N[C@@H](Cc1c[nH]cn1)C(=O)N[C@@H](CCCCN)C(=O)NCC(=O)N1[C@H](C(=O)N[C@@H](CCCC)C(=O)N2CCC[C@H]2C(=O)N[C@@H](Cc2ccc(Cl)cc2)C(=O)O)C[C@@H]2CCCC[C@@H]21)C(=O)O` [compound 356] ({Tridecanoyl-γGlu-AEEA-AEEA}-QRP[hArg]LSHKG[Oic][Nle]P[Phe(4-Cl)]-OH): the results for the fraction remaining at 4 h, 5 μM in data set [1], in data set [2] and in data set [3] were 0%, 87% and 2%, respectively.
The like results for `CCCCCCCCCCCCC(=O)N[C@@H](CCC(=O)NCCOCCOCC(=O)NCCOCCOCC(=O)N[C@@H](CCC(N)=O)C(=O)N1CCC[C@H]1CC(=O)N(C)[C@@H](CCCNC(=N)N)C(=O)N[C@@H](CC1CCCCC1)C(=O)N[C@@H](CO)C(=O)N[C@@H](Cc1c[nH]cn1)C(=O)N[C@@H](CCCCN)C(=O)NCC(=O)N1[C@H](C(=O)N[C@@H](CCCC)C(=O)NC(C)(C)C(=O)N[C@@H](Cc2ccc(Cl)cc2)C(=O)O)C[C@@H]2CCCC[C@@H]21)C(=O)O` [compound 550] ({Tridecanoyl-γGlu-AEEA-AEEA}-Q[β3hP][NMeR][Cha]SHKG[Oic][Nle][Aib][Phe(4-Cl)]-OH) were, in that order, below 1%, above 90% and 2%.
The like results for `CCCCCCCCCCCCC(=O)N[C@@H](CCC(=O)NCCOCCOCC(=O)NCCOCCOCC(=O)N[C@@H](CCC(N)=O)C(=O)N[C@@H](CCCNC(=N)N)C(=O)N1CCC[C@H]1C(=O)N(C)[C@@H](CCCNC(=N)N)C(=O)N[C@@H](CC1CCCCC1)C(=O)N[C@@H](CO)C(=O)N[C@@H](Cc1c[nH]cn1)C(=O)N[C@@H](CCCCN)C(=O)NCC(=O)N1[C@H](C(=O)N[C@@H](CCCC)C(=O)N2CCC[C@@]2(C)C(=O)N[C@@H](Cc2ccc(Cl)cc2)C(=O)O)C[C@@H]2CCCC[C@@H]21)C(=O)O` [compound 412] ({Tridecanoyl-γGlu-AEEA-AEEA}-QRP[NMeR][Cha]SHKG[Oic][Nle][αMeP][Phe(4-Cl)]-OH) were, in that order, 3%, 77% and 76%.
The like results for `CCCC[C@H](NC(=O)[C@@H]1CCCN1C(=O)CNC(=O)[C@H](CCCCN)NC(=O)[C@H](Cc1c[nH]cn1)NC(=O)[C@H](CO)NC(=O)[C@](C)(CC(C)C)NC(=O)[C@H](CCCNC(=N)N)N(C)C(=O)[C@@H]1CCCN1C(=O)[C@H](CCCCNC(=N)N)NC(=O)[C@H](CCC(N)=O)NC(C)=O)C(=O)N1CCC[C@H]1C(=O)N[C@@H](Cc1ccc(Cl)cc1)C(=O)O` [compound 71] were, in that order, 0.1%, 0% and 35.5%.
On to `CCCCCCCCCCCCC(=O)N[C@@H](CCC(=O)NCCOCCOCC(=O)NCCOCCOCC(=O)N[C@H](CCC(N)=O)C(=O)N[C@@H](CCCCNC(=N)N)C(=O)N1CCC[C@H]1C(=O)N[C@H](CCCNC(=N)N)C(=O)N[C@@H](CC1CCCCC1)C(=O)N[C@@H](CO)C(=O)N[C@@H](Cc1c[nH]cn1)C(=O)N[C@@H](CCCCN)C(=O)N[C@H](C(=O)N1[C@H](C(=O)N[C@@H](CCCC)C(=O)N2CCC[C@H]2C(=O)N[C@@H](Cc2ccc(Cl)cc2)C(=O)O)C[C@@H]2CCCC[C@@H]21)C(C)(C)C)C(=O)O` [compound 371] ({Tridecanoyl-γGlu-AEEA-AEEA}-[dQ][hArg]P[dR][Cha]SHK[Tle][Oic][Nle]P[Phe(4-Cl)]-OH), for which the amount remaining at 4 h, 5 μM in data set [1] amounted to 28%; in data set [2], 90%; in data set [3], 81%.
As to `CCCCCCCCCCCCC(=O)N[C@@H](CCC(=O)NCCOCCOCC(=O)NCCOCCOCC(=O)N[C@H](CCC(N)=O)C(=O)N[C@@H](CCCNC(=N)N)C(=O)N1CCC[C@@]1(C)C(=O)N[C@@H](CCCCNC(=N)N)C(=O)N[C@H](CC(=O)N[C@@H](CO)C(=O)N[C@@H](Cc1c[nH]cn1)C(=O)N[C@@H](CCCCN)C(=O)NCC(=O)N1CCCC[C@H]1C(=O)N[C@@H](CCCC)C(=O)N1CCC[C@@]1(C)C(=O)N[C@@H](Cc1ccc(Cl)cc1)C(=O)O)C(C)C)C(=O)O` [compound 503] ({Tridecanoyl-γGlu-AEEA-AEEA}-[dQ]R[αMeP][hArg][β3hV]SHKG[Pip][Nle][αMeP][Phe(4-Cl)]-OH), the amount remaining at 4 h, 5 μM in data set [1] turned out to be 2%; in data set [2], 85%; in data set [3] it was 7%.
The like results for `CCCCCCCCCCCCC(=O)N[C@@H](CCC(=O)NCCOCCOCC(=O)NCCOCCOCC(=O)N[C@@H](CCCNC(=N)N)C(=O)N[C@@H](CCC(N)=O)C(=O)N[C@@H](CCCNC(=N)N)C(=O)N1CCC[C@H]1C(=O)N[C@@H](CCCC)C(=O)N[C@@H](CC1CCCCC1)C(=O)N[C@@H](C)C(=O)N[C@@H](Cc1c[nH]cn1)C(=O)N[C@@H](CCCCN)C(=O)NCC(=O)N1[C@H](C(=O)N[C@@H](CCCC)C(=O)N2CCC[C@H]2C(=O)N[C@@H](Cc2ccc(Cl)cc2)C(=O)O)C[C@@H]2CCCC[C@@H]21)C(=O)O` [compound 344] ({Tridecanoyl-γGlu-AEEA-AEEA}-RQRP[Nle][Cha]AHKG[Oic][Nle]P[Phe(4-Cl)]-OH) were, in that order, 0%, 88% and 6%.
The like results for `CCCCCCCCCCCCC(=O)N[C@@H](CCC(=O)NCCOCCOCC(=O)NCCOCCOCC(=O)N[C@@H](CCCCNC(=N)N)C(=O)N[C@H](CCCNC(=N)N)C(=O)N[C@@H](CCC(N)=O)C(=O)N[C@@H](CCCC)C(=O)N1CCC[C@H]1C(=O)N[C@H](CCCNC(=N)N)C(=O)N(C)[C@@H](CC(C)C)C(=O)N[C@@H](CO)C(=O)N[C@@H](C)C(=O)N[C@@H](CCCCN)C(=O)NCC(=O)N1[C@H](C(=O)N[C@@H](Cc2ccc(I)cc2)C(=O)N2CCC[C@H]2C(=O)N[C@H](Cc2ccc(-c3ccccc3)cc2)C(=O)O)C[C@@H]2CCCC[C@@H]21)C(=O)O` [compound 328] ({Tridecanoyl-γGlu-AEEA-AEEA}-[hArg][dR]Q[Nle]P[dR][NMeL]SAKG[Oic][Phe(4-I)]P[dBip]-OH) were, in that order, 55%, 76% and 0%.
The like results for `CCCCCCCCCCCCC(=O)N[C@@H](CCC(=O)NCCOCCOCC(=O)NCCOCCOCC(=O)N[C@@H](CCCCNC(=N)N)C(=O)N[C@@H](CCC(N)=O)C(=O)N[C@@H](CCCCNC(=N)N)C(=O)N1CCC[C@H]1C(=O)N[C@@H](CCCCNC(=N)N)C(=O)N[C@@H](CC1CCCCC1)C(=O)N[C@@H](CO)C(=O)N[C@@H](Cc1c[nH]cn1)C(=O)N[C@@H](CCCCN)C(=O)NCC(=O)N1[C@H](C(=O)N[C@@H](CCCC)C(=O)N2CCC[C@H]2C(=O)N[C@@H](Cc2ccc(Cl)cc2)C(=O)O)C[C@@H]2CCCC[C@@H]21)C(=O)O` [compound 490] ({Tridecanoyl-γGlu-AEEA-AEEA}-[hArg]Q[hArg]P[hArg][Cha]SHKG[Oic][Nle]P[Phe(4-Cl)]-OH) were, in that order, below 1%, 88% and 9%.
Turning to “110 (QRPRLSHKGPMPF; source: /note="N-term MerPr(10KmPEGacetamide)") [compound 110]”, in data set [1] (4 h, 5 μM), the “Stability at 4 hours (% Remaining) Kidney” value is 27 % Remaining. For the same compound, the “Stability at 4 hours (% Remaining) Plasma” value in data set [2] (4 h, 5 μM) was 36 % Remaining. Also, the “Stability at 4 hours (% Remaining) Liver” value in data set [3] (4 h, 5 μM) was determined as 61 % Remaining.
With `CCCCCCCCCCCCC(=O)N[C@@H](CCC(=O)NCCOCCOCC(=O)NCCOCCOCC(=O)N[C@@H](CCC(N)=O)C(=O)N[C@@H](CCCNC(=N)N)C(=O)N1CCC[C@H]1C(=O)N(C)[C@@H](CCCNC(=N)N)C(=O)N[C@@H](CC(C)C)C(=O)N(CCO)CC(=O)N[C@@H](Cc1c[nH]cn1)C(=O)N[C@@H](CCCCN)C(=O)NCC(=O)N1CCC[C@H]1C(=O)N[C@@H](CCCC)C(=O)N1CCC[C@H]1C(=O)N[C@@H](Cc1ccc(Cl)cc1)C(=O)O)C(=O)O` [compound 467] ({Tridecanoyl-γGlu-AEEA-AEEA}-QRP[NMeR]L[Gly(N-CH2CH2OH)]HKGP[Nle]P[Phe(4-Cl)]-OH), the share remaining at 4 h, 5 μM in data set [1] came out at 83%; in data set [2], 27%; in data set [3], 87%.
The like results for `CCCCCCCCCCCCCCCCC(=O)N[C@@H](CCC(=O)NCCOCCOCC(=O)NCCOCCOCC(=O)N[C@@H](CCC(N)=O)C(=O)N[C@@H](CCCNC(=N)N)C(=O)N1CCC[C@H]1C(=O)N(C)[C@@H](CCCNC(=N)N)C(=O)N[C@@H](CC(C)C)C(=O)N[C@@H](CO)C(=O)N[C@@H](Cc1c[nH]cn1)C(=O)N[C@@H](CCCCN)C(=O)NCC(=O)N1CCC[C@H]1C(=O)N[C@@H](CCCC)C(=O)N1CCC[C@H]1C(=O)N[C@@H](Cc1ccc(Cl)cc1)C(=O)O)C(=O)O` [compound 496] were, in that order, below 1%, 86% and 3%.
The like results for `CCCCCCCCCCCCC(=O)N[C@@H](CCC(=O)NCCOCCOCC(=O)NCCOCCOCC(=O)N[C@@H](CCCNC(=N)N)C(=O)N[C@@H](CCC(N)=O)C(=O)N[C@@H](CCCC)C(=O)N1CCC[C@H]1C(=O)N[C@@H](CCCCNC(=N)N)C(=O)N[C@@H](CC1CCCCC1)C(=O)N[C@@H](CO)C(=O)N[C@@H](Cc1c[nH]cn1)C(=O)N[C@@H](CCCCN)C(=O)NCC(=O)N1[C@H](C(=O)N[C@@H](CCCC)C(=O)N2CCC[C@H]2C(=O)N[C@@H](Cc2ccc(Cl)cc2)C(=O)O)C[C@@H]2CCCC[C@@H]21)C(=O)O` [compound 339] ({Tridecanoyl-γGlu-AEEA-AEEA}-RQ[Nle]P[hArg][Cha]SHKG[Oic][Nle]P[Phe(4-Cl)]-OH) were, in that order, 2%, 93% and 13%.
